In PMC8550792, “Evolution of kinase polypharmacology across HSP90 drug discovery” (Cell Chemical Biology, 2021):

Tests used:
Experiment in all cases: biochemical
Type in all cases: biochemical
[1] = biological target: T1, 382 unique human kinases (Homo sapiens, UniProt O75385); settings: ULK1, 10 uM; for remaining activity at 10 µM: read-out: % Enzyme Activity (relative to DMSO controls)
T1 construct: purchased Reaction Biology (HotSpot contract assay)
T1 sequence (O75385 1-1050): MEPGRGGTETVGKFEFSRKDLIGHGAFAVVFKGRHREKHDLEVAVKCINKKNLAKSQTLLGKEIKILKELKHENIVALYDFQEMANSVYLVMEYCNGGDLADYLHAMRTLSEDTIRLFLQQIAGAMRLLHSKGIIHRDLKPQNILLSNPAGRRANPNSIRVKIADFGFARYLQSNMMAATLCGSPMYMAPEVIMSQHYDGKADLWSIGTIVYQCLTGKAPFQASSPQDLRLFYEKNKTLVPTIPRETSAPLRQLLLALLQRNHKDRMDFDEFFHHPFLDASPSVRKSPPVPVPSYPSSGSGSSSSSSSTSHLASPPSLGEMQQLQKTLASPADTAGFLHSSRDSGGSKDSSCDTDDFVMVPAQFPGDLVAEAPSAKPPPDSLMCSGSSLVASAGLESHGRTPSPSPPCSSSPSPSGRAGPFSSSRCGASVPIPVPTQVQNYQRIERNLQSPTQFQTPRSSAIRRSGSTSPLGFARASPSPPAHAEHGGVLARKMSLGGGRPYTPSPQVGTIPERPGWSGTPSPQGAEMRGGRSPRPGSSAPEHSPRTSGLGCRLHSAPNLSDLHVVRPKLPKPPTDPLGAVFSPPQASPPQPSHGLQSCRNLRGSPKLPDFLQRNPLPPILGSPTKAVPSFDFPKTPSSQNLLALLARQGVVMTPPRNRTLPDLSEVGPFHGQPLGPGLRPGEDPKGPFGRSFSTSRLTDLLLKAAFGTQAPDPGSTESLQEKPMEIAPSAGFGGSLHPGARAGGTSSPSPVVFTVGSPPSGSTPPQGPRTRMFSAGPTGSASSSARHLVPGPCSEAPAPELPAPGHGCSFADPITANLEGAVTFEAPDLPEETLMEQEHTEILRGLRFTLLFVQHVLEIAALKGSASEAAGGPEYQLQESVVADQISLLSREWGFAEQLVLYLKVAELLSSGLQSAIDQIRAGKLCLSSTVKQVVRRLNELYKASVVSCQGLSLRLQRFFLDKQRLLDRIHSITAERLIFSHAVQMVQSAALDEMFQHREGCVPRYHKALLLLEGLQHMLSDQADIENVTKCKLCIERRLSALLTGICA

[2] = biological target: T2, 382 unique human kinases (Homo sapiens, UniProt P00533, L858R); settings: kinase EGFR (L858R), compound 10 uM; for remaining activity at 10 µM: read-out: % Enzyme Activity (relative to DMSO controls)
T2 construct: purchased Reaction Biology (HotSpot contract assay)

[3] = biological target: T3, 382 unique human kinases (Homo sapiens, UniProt P22607, K650E); settings: FGFR3 (K650E), 10 uM; for remaining activity at 10 µM: read-out: % Enzyme Activity (relative to DMSO controls)
T3 construct: purchased Reaction Biology (HotSpot contract assay)
T3 sequence (P22607 23-806 K650E): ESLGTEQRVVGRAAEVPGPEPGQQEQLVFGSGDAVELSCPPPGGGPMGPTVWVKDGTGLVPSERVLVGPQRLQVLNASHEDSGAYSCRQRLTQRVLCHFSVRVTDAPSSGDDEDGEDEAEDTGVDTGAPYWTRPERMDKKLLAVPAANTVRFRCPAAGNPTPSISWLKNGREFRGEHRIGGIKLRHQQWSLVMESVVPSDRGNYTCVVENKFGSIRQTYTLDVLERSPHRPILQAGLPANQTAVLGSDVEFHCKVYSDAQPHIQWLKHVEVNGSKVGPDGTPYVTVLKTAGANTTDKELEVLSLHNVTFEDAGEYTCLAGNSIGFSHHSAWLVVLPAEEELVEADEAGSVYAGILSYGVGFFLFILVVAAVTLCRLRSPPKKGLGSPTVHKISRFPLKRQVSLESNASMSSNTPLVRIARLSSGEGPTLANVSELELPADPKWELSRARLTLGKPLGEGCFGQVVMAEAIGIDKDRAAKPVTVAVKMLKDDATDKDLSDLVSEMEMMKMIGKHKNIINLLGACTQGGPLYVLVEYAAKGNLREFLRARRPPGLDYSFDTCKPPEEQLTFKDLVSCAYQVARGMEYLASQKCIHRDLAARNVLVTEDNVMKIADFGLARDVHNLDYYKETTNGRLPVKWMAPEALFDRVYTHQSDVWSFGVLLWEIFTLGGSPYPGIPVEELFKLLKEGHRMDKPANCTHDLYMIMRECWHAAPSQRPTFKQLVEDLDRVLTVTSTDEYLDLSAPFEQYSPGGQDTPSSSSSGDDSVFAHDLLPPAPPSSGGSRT

[4] = biological target: T4, 382 unique human kinases (Homo sapiens, UniProt P22694); settings: kinase PKAcb, compound 10 uM; for remaining activity at 10 µM: read-out: % Enzyme Activity (relative to DMSO controls)
T4 construct: purchased Reaction Biology (HotSpot contract assay)

[5] = biological target: T5, 382 unique human kinases (Homo sapiens, UniProt P36894); settings: ALK3/BMPR1A, 10 uM; for remaining activity at 10 µM: read-out: % Enzyme Activity (relative to DMSO controls)
T5 construct: purchased Reaction Biology (HotSpot contract assay)
T5 sequence (P36894 24-532): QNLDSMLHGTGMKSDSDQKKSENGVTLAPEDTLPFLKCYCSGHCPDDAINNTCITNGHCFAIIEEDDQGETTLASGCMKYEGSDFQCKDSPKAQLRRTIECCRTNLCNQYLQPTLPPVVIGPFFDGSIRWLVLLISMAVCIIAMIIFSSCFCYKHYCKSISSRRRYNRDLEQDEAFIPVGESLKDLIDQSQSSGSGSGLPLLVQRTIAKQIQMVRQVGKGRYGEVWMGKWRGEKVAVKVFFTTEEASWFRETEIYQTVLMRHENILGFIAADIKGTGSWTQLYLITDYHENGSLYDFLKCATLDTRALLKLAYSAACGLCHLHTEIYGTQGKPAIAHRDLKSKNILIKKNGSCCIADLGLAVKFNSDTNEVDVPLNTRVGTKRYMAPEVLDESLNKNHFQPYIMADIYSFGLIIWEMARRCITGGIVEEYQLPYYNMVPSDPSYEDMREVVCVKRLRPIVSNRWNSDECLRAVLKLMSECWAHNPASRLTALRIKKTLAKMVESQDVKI

[6] = biological target: T6, 382 unique human kinases (Homo sapiens, UniProt Q15835); settings: GRK1, 10 uM; for remaining activity at 10 µM: read-out: % Enzyme Activity (relative to DMSO controls)
T6 construct: purchased Reaction Biology (HotSpot contract assay)
T6 sequence (Q15835 1-563): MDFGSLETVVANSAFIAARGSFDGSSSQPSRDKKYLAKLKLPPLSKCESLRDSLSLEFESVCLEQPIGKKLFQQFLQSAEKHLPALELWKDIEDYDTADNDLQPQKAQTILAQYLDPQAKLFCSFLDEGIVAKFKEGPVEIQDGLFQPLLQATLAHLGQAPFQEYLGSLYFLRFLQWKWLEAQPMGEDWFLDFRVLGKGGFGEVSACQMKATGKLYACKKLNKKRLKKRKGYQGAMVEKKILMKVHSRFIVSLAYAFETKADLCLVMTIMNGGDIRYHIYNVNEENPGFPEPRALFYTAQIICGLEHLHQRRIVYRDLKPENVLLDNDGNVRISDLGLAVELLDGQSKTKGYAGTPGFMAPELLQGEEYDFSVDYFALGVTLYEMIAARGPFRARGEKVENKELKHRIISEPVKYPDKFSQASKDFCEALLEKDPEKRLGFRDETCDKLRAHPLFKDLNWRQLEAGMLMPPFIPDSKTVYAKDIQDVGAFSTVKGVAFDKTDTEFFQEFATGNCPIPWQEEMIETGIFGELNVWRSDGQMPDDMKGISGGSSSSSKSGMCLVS

[7] = biological target: T7, 382 unique human kinases (Homo sapiens, UniProt Q92630); settings: DYRK2, 10 uM; for remaining activity at 10 µM: read-out: % Enzyme Activity (relative to DMSO controls)
T7 construct: purchased Reaction Biology (HotSpot contract assay)
T7 sequence (Q92630 1-601): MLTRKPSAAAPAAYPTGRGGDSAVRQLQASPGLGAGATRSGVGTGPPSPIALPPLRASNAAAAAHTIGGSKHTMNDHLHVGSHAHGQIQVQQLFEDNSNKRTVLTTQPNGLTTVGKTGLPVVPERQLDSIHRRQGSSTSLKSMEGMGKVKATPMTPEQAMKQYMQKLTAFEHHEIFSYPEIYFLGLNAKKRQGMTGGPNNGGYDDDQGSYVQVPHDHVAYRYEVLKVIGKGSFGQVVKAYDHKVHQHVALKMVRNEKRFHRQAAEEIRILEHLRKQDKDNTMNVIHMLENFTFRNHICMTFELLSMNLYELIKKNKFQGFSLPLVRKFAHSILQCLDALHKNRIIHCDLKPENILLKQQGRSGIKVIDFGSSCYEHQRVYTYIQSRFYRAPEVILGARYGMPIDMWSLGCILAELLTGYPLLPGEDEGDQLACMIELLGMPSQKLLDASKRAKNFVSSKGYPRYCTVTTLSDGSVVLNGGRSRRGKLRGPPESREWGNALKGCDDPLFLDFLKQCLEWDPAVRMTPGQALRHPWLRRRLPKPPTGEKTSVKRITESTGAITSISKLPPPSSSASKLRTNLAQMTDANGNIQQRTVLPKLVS

[8] = biological target: T8, 382 unique human kinases (Homo sapiens, UniProt Q5TCX8); settings: MLK4, 10 uM; for remaining activity at 10 µM: read-out: % Enzyme Activity (relative to DMSO controls)
T8 construct: purchased Reaction Biology (HotSpot contract assay)
T8 sequence (Q5TCX8 whole entry): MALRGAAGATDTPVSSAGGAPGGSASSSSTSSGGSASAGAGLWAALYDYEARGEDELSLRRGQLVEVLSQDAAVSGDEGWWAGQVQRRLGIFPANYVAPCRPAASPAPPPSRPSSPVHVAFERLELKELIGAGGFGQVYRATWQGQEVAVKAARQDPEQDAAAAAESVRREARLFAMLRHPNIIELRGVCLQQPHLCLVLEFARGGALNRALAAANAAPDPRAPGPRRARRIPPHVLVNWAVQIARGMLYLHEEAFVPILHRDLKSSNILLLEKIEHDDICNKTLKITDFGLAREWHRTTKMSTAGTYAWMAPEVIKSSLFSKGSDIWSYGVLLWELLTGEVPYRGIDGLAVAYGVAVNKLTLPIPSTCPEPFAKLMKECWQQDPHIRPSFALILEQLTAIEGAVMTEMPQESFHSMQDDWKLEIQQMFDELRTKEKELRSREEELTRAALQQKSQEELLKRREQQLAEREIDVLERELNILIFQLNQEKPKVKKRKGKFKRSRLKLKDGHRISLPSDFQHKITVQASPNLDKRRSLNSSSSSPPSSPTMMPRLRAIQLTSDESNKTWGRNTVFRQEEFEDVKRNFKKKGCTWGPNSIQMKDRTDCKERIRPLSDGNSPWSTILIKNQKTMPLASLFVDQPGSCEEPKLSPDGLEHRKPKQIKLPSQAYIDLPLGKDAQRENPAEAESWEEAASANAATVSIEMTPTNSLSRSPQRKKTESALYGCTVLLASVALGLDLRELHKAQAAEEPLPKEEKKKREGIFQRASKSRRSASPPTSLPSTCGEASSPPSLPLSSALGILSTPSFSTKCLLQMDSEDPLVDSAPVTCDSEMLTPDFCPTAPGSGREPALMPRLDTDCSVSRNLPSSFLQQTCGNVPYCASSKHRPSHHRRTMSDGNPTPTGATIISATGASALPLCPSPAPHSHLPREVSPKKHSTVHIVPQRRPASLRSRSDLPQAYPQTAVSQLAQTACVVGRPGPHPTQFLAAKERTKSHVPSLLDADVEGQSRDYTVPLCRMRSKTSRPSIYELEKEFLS

SMILES | remaining activity at 10 µM [1] [%] | remaining activity at 10 µM [2] [%] | remaining activity at 10 µM [3] [%] | remaining activity at 10 µM [4] [%] | remaining activity at 10 µM [5] [%] | remaining activity at 10 µM [6] [%] | remaining activity at 10 µM [7] [%] | remaining activity at 10 µM [8] [%] | % Enzyme Activity (relative to DMSO controls) [8] [%] | % Enzyme Activity (relative to DMSO controls) [1] [%] | % Enzyme Activity (relative to DMSO controls) [2] [%] | % Enzyme Activity (relative to DMSO controls) [3] [%] | % Enzyme Activity (relative to DMSO controls) [4] [%] | % Enzyme Activity (relative to DMSO controls) [5] [%] | % Enzyme Activity (relative to DMSO controls) [6] [%] | % Enzyme Activity (relative to DMSO controls) [7] [%]
CC(C)c1cc(-c2n[nH]c(=O)n2-c2ccc3c(ccn3C)c2)c(O)cc1O [Ganetespib (STA9090)] | 73 | 88.8 | 66.5 | 96.3 | 59.1 | 76 | 75 | – | – | – | – | – | – | – | – | –
CC(C)c1cc(-c2n[nH]c(=O)n2-c2ccc3c(ccn3C)c2)c(O)cc1O [Ganetespib] | – | – | – | – | – | – | – | 141 | – | – | – | – | – | – | – | –
CCNC(=O)c1noc(-c2cc(C(C)C)c(O)cc2O)c1-c1ccc(CN2CCOCC2)cc1 [Luminespib] | – | – | – | – | – | – | – | 101 | 99.12 | – | – | – | – | – | – | –
CCNC(=O)c1noc(-c2cc(C(C)C)c(O)cc2O)c1-c1ccc(CN2CCOCC2)cc1 [Luminespib (AUY-922)] | 104 | 97 | 101 | 103 | 100 | 85.9 | 99.7 | – | – | 102.69 | 96.48 | 98.78 | 100.86 | 99.39 | 85.44 | 98.38
